Data reported in PubChem BioAssay AID624374 (Broad Institute, 2012).
Records with an inconclusive call do not appear. The source made the active and inactive calls. How the calls were made is not given here.

Assay: cytotoxicity in HEK293 background cells – cell-based, dry powder, set 2, counter-screen for EBV LMP1 inhibitor project, dose response (AID 624374)
Settings: HEK293 viability counterscreen, plate reader

| SMILES | activity change, negative = viability loss (at 35 µM (top of the series)) | activity change, negative = viability loss (at 30 µM (top of the series)) |
| --- | --- | --- |
| C[C@@H](NC(=O)C[C@@H]1C=C[C@H](NC(=O)Cc2ccccn2)[C@@H](CO)O1)c1ccccc1 | -2.91% (inactive) |  |
| Cc1noc(C)c1S(=O)(=O)Nc1ccc2c(c1)C(=O)N([C@@H](C)CO)C[C@@H](C)[C@@H](CN(C)Cc1ccc(C(F)(F)F)cc1)OCCCC[C@@H](C)O2 | -11.2% (inactive) |  |
| Cc1noc(C)c1S(=O)(=O)Nc1ccc2c(c1)C(=O)N([C@@H](C)CO)C[C@@H](C)[C@H](CN(C)Cc1ccc(C(F)(F)F)cc1)OCCCC[C@@H](C)O2 | -0.939% (inactive) |  |
| C[C@@H](NC(=O)C[C@H]1C=C[C@@H](NC(=O)Cc2ccccn2)[C@H](CO)O1)c1ccccc1 | -2.87% (inactive) |  |
| C[C@H]1CN([C@@H](C)CO)C(=O)c2c(c3ccccc3n2C)-c2ccccc2CO[C@@H]1CN(C)C(=O)Nc1ccc(F)cc1 | 2.63% (inactive) |  |
| COc1cccc(S(=O)(=O)N(C)C[C@@H]2Oc3cc(C4=CCCCC4)ccc3S(=O)(=O)N([C@@H](C)CO)C[C@@H]2C)c1 | -1.39% (inactive) |  |
| O=C(C[C@H]1C[C@H]2c3cc(NC(=O)c4ccc5c(c4)OCO5)ccc3O[C@H]2[C@H](CO)O1)NCc1ccc(Oc2ccccc2)cc1 | -11.7% (inactive) |  |
| O=C(C[C@@H]1C[C@@H]2c3cc(NS(=O)(=O)c4ccc(F)cc4)ccc3O[C@@H]2[C@H](CO)O1)NC1CCCCC1 | 6.32% (inactive) |  |
| CN(C)c1ccc2c(c1)[C@@H]1C[C@@H](CC(=O)NCc3ccc(Oc4ccccc4)cc3)O[C@H](CO)[C@@H]1O2 | -4.49% (inactive) |  |
| C[C@@H](NC(=O)C[C@@H]1C=C[C@@H](NC(=O)Cc2ccccn2)[C@H](CO)O1)c1ccccc1 | 5.06% (inactive) |  |
| O=C(C[C@@H]1CC[C@H]2[C@@H](COC[C@H](O)CN2Cc2ccc(Oc3ccccc3)cc2)O1)N1CCc2ccccc2C1 | -2.75% (inactive) |  |
| COc1ccccc1C#Cc1cnc2c(c1)C(=O)N([C@H](C)CO)C[C@H](C)[C@@H](CN(C)C(=O)c1ccc3c(c1)OCO3)O2 | 7.12% (inactive) |  |
| COc1ccc(S(=O)(=O)N(C)C[C@H]2Oc3ncc(/C=C/c4ccccc4)cc3C(=O)N([C@H](C)CO)C[C@@H]2C)cc1 | 13.6% (inactive) |  |
| C[C@@H](NC(=O)C[C@H]1C=C[C@@H](NC(=O)Cc2ccccn2)[C@@H](CO)O1)c1ccccc1 | 2.73% (inactive) |  |
| O=C(C[C@@H]1C[C@H]2c3cc(NC(=O)c4ccc5c(c4)OCO5)ccc3O[C@H]2[C@H](CO)O1)NC1CCCCC1 | 2.89% (inactive) |  |
| COc1ccc(-c2cccc(-c3nc(C(=O)NCC(F)(F)F)cc4c3[C@H](CCO)N([S@@](=O)C(C)(C)C)C4)c2)cc1 | -10.9% (inactive) |  |
| COc1ccccc1C#Cc1ccc([C@H]2[C@H](C#N)N(C(=O)C3CC3)[C@H]2CO)cc1 | 2.46% (inactive) |  |
| COc1ccc(S(=O)(=O)N(C)C[C@@H]2Oc3ncc(/C=C/c4ccccc4)cc3C(=O)N([C@@H](C)CO)C[C@H]2C)cc1 | 5.95% (inactive) |  |
| C[C@H]1CN([C@@H](C)CO)C(=O)Cc2cc(NC(=O)Cc3ccccc3)ccc2O[C@@H]1CN(C)Cc1ccc(C(F)(F)F)cc1 | 12.4% (inactive) |  |
| CN(C)C(=O)c1cccc(-c2cccc(-c3nc(C(=O)NCc4ccccc4)cc4c3[C@@H](CCO)N([S@](=O)C(C)(C)C)C4)c2)c1 |  | -12.3% (inactive) |
| C/C=C/c1cccc(-c2nc(C(=O)Nc3nccs3)cc3c2[C@@H](CCO)N(C(=O)NC(C)C)C3)c1 | 4.5% (inactive) |  |

| SMILES | activity change, negative = viability loss (at 35 µM (top of the series)) | activity change, negative = viability loss (at 30 µM (top of the series)) |
| --- | --- | --- |
| Cc1noc(C)c1S(=O)(=O)Nc1ccc2c(c1)C(=O)N([C@@H](C)CO)C[C@H](C)[C@H](CN(C)Cc1ccc(C(F)(F)F)cc1)OCCCC[C@@H](C)O2 |  | 11.8% (inactive) |
| Cc1noc(C)c1S(=O)(=O)Nc1ccc2c(c1)C(=O)N([C@@H](C)CO)C[C@H](C)[C@@H](CN(C)Cc1ccc(C(F)(F)F)cc1)OCCCC[C@H](C)O2 | 4.59% (inactive) |  |
| CC(C)NC(=O)N1Cc2cc(C(=O)NC3Cc4ccccc4C3)nc(-c3cccc(-c4cccnc4)c3)c2[C@@H]1CCO | 22.6% (inactive) |  |
| C[C@H](NC(=O)C[C@H]1C=C[C@@H](NC(=O)Cc2ccccn2)[C@@H](CO)O1)c1ccccc1 | -1.38% (inactive) |  |
| O=C(C[C@@H]1C[C@@H]2c3cc(NC(=O)c4cccnc4)ccc3O[C@@H]2[C@H](CO)O1)NCC(F)(F)F | -0.478% (inactive) |  |
| Cc1cc(C(=O)Nc2ccc3c(c2)C(=O)N(C)[C@H]2CC[C@H](CC(=O)NCc4ccc(-c5ccccc5)cc4)O[C@H]2CO3)no1 | -11.4% (inactive) |  |
| C[C@H]1CN([C@@H](C)CO)C(=O)c2cc(C#Cc3ccccc3F)cnc2O[C@@H]1CN(C)C(=O)C1CCCCC1 | 7.95% (inactive) |  |
| C[C@@H]1CN([C@H](C)CO)C(=O)Cc2cc(NC(=O)Cc3ccccc3)ccc2O[C@@H]1CN(C)Cc1ccc(C(F)(F)F)cc1 | 0.279% (inactive) |  |
| COc1cccc(S(=O)(=O)N(C)C[C@H]2Oc3cc(C4=CCCCC4)ccc3S(=O)(=O)N([C@H](C)CO)C[C@H]2C)c1 | -4.57% (inactive) |  |
| N#C[C@H]1N[C@H](CO)[C@H]1c1ccc(C#Cc2ccccc2F)cc1 | -10.8% (inactive) |  |
| O=C(C[C@H]1C[C@@H]2c3cc(NC(=O)c4ccc5c(c4)OCO5)ccc3O[C@@H]2[C@@H](CO)O1)NCc1ccc(Oc2ccccc2)cc1 | -3.98% (inactive) |  |
| Cc1noc(C)c1S(=O)(=O)Nc1ccc2c(c1)C(=O)N([C@H](C)CO)C[C@@H](C)[C@H](CN(C)Cc1ccc(C(F)(F)F)cc1)OCCCC[C@@H](C)O2 | -3.71% (inactive) |  |
| C[C@H](NC(=O)C[C@H]1C[C@@H]2c3cc(NC(=O)c4cccnc4)ccc3O[C@@H]2[C@@H](CO)O1)c1ccccc1 | -6.5% (inactive) |  |
| CC(C)NC(=O)N1Cc2cc(C(=O)NC3Cc4ccccc4C3)nc(-c3cccc(-c4cccnc4)c3)c2[C@H]1CCO | 25.1% (inactive) |  |
| N#C[C@H]1[C@H](c2ccc(C#Cc3ccccc3F)cc2)[C@@H](CO)N1C(=O)c1cccnc1 | 4.46% (inactive) |  |
| CC(C)(C)[S@@](=O)N1Cc2cc(C(=O)NCc3ccccn3)nc(-c3cccc(-c4ccccc4F)c3)c2[C@H]1CCO | 2.2% (inactive) |  |
| C[C@@H](NC(=O)C[C@H]1C=C[C@H](NC(=O)Cc2ccccn2)[C@H](CO)O1)c1ccccc1 | -7.68% (inactive) |  |
| Cc1noc(C)c1S(=O)(=O)Nc1ccc2c(c1)C(=O)N([C@H](C)CO)C[C@@H](C)[C@@H](CN(C)Cc1ccc(C(F)(F)F)cc1)OCCCC[C@H](C)O2 | -1.22% (inactive) |  |
| Cc1noc(C)c1S(=O)(=O)Nc1ccc2c(c1)C(=O)N([C@H](C)CO)C[C@@H](C)[C@H](CN(C)Cc1ccc(C(F)(F)F)cc1)OCCCC[C@H](C)O2 | -6.47% (inactive) |  |
| C[C@H]1CN([C@@H](C)CO)C(=O)c2c(c3ccccc3n2C)-c2ccccc2CO[C@H]1CN(C)C(=O)Nc1ccc(F)cc1 | -8.86% (inactive) |  |
| COc1ccccc1C#Cc1ccc2c(c1)O[C@H](CN(C)Cc1cccnc1)[C@H](C)CN([C@H](C)CO)S2(=O)=O | 4.43% (inactive) |  |
